In patent US20180057447A1, “METHYL MENTHOL DERIVATIVE AND COOLING AGENT COMPOSITION CONTAINING SAME” (TAKASAGO INTERNATIONAL CORPORATION, priority 2015, published 2018):
Entries after “also recorded” stand apart in the source; their conditions may differ.

Legend:
[1] = Evaluation of cool feeling intensity (EC50, with reference to NPL 6); type: cell-based; conditions: index of the cool feeling intensity; read-out: EC50 (concentration at which a cool feeling is felt)
Description: The measurement of the cool feeling intensity was performed with reference to NPL 6. A concentration EC50 at which a cool feeling is felt is shown below as the index of the cool feeling intensity.

[2] = Sensory evaluation of aqueous solutions against comparative compounds; type: in vivo; conditions: for course / persistence of cool feeling intensity / start of cool feeling / taste and accompanying sensations (umami, salty, bitterness, numbness, fiery feeling): vs Comparative Compound 3; for cool feeling characteristic: rac-14a-38 vs Comparative Compound 1 (Evercool 180)
Description: Sensory Evaluation was performed by comparison with Comparative Compound 1 (Evercool 180), which has a strong cool feeling among conventionally known compounds, and has a similar structure. Each of Exemplary Compound rac-14a-38 and Comparative Compound 1 was prepared as a 2 ppm aqueous solution, and the evaluation was performed.
Sensory Evaluation was performed by comparison with Comparative Compound 2, which is conventionally known, and has a similar structure. Each of Exemplary Compound rac-14a-23 and Comparative Compound 2 was prepared as a 30 ppm aqueous solution, and the evaluation was performed.
Sensory Evaluation was performed by comparison with Comparative Compound 3, which is conventionally known, and has a similar structure. Each of Exemplary Compound rac-14a-34 and Comparative Compound 3 was prepared as a 30 ppm aqueous solution, and the evaluation was performed.
Sensory Evaluation was performed by comparison with Comparative Compound 3, which is conventionally known, and has a similar structure. Each of Exemplary Compound rac-14a-40 and Comparative Compound 3 was prepared as a 30 ppm aqueous solution, and the evaluation was performed.
Sensory Evaluation was performed by comparison with Comparative Compound 3 which is conventionally known. Each of Exemplary Compound rac-14a-46 and Comparative Compound 3 was prepared as a 30 ppm aqueous solution, and the evaluation was performed.
Sensory Evaluation was performed by comparison with Comparative Compound 3 which is conventionally known. Each of Exemplary Compound rac-14a-41 and Comparative Compound 3 was prepared as a 30 ppm aqueous solution, and the evaluation was performed.
Sensory Evaluation was performed by comparison with Comparative Compound 3 which is conventionally known. Each of Exemplary Compound rac-14a-47 and Comparative Compound 3 was prepared as a 30 ppm aqueous solution, and the evaluation was performed.

[3] = 30 ppm aqueous solution, vs Comparative Compound 2

Row | SMILES | EC50 [1] | melting point | further results
1 | CC(C)C1CCC(C)(C)CC12OCC(CO)O2 (racemic) [(1R,2S)-19a-1, (6-isopropyl-9,9-dimethyl-1,4-dioxaspiro[4.5]decan-2-yl)methanol] | 32400 nM | – | –
2 | CCNC(=O)C1CC(C)(C)CCC1C(C)C (racemic) [rac-14a-2, N-ethyl-2-isopropyl-5,5-dimethylcyclohexanecarboxamide] | 2270 nM | 101 to 105 °C | –
3 | CCOC(=O)CNC(=O)C1CC(C)(C)CCC1C(C)C (racemic) [rac-14a-23, ethyl 2-(2-isopropyl-5,5-dimethylcyclohexanecarboxamide) acetate] | 490 nM | 104 to 107 °C | cool feeling intensity peak [2, 3]: comparable to that of Comparative Compound 2; exhibition of a cool feeling (start) [2, 3]: later than Comparative Compound 2; persistence of cool feeling [2, 3]: superior to that of Comparative Compound 2; sharp cool feeling stimulation [2, 3]: stronger than that in Comparative Compound 2
4 | CC(C)C1CCC(C)(C)CC1C(=O)Nc1ccc(CC#N)cc1 (racemic) [rac-14a-38, N-(4-(cyanomethyl)phenyl)-2-isopropyl-5,5-dimethylcyclohexanecarboxamide] | 240 nM | 121 to 122 °C | lapse until cool feeling exhibited after put in the mouth ([2]; 2 ppm aqueous solution): 1 minute to several minutes; persistence of cool feeling ([2]; 2 ppm aqueous solution): ≥ 30 min; cool feeling characteristic ([2]; 2 ppm aqueous solution): more natural than that of Comparative Compound 1; also recorded: only a cool feeling was felt; also recorded: sharper than that of Comparative Compound 1
5 | COC(=O)c1cccc(NC(=O)C2CC(C)(C)CCC2C(C)C)c1 (racemic) [rac-14a-44, methyl 3-(2-isopropyl-5,5-dimethylcyclohexanecarboxamide) benzoate] | 5240 nM | – | –
6 | COC(=O)c1ccc(NC(=O)C2CC(C)(C)CCC2C(C)C)cc1 (racemic) [rac-14a-45, methyl 4-(2-isopropyl-5,5-dimethylcyclohexanecarboxamide) benzoate] | 3530 nM | – | –
7 | COC(=O)c1ccc(NC(=O)C2CC(C)(C)CCC2C(C)C)c(C)c1 (racemic) [rac-14a-46, methyl 4-(2-isopropyl-5,5-dimethylcyclohexanecarboxamide)-3-methylbenzoate] | 1500 nM | – | course / persistence of cool feeling intensity ([2]; 30 ppm aqueous solution): the cool feeling intensity persisted; start of cool feeling ([2]; 30 ppm aqueous solution): the start was late; taste and accompanying sensations (umami, salty, bitterness, numbness, fiery feeling) ([2]; 30 ppm aqueous solution): clear and light touch characteristic of an ester
8 | CC(C)[C@@H]1CCC(C)(C)C[C@H]1OC(=O)[C@H](C)O (racemic) [rac-17a-2, (S)-(trans-2-isopropyl-5,5-dimethylcyclohexyl)2-hydroxypropanoate] | 64700 nM | – | –
9 | CC(C)C1CCC(C)(C)CC1C(N)=O (stereo not shown) [14a-50, 2-isopropyl-5,5-dimethylcyclohexanecarboxamide] | 15500 nM | 141 to 145 °C | –
10 | CC(C)[C@@H]1CCC(C)(C)C[C@H]1OC(=O)[C@H](C)O [(1R,2S)-17a-2, (S)-((1R,2S)-2-isopropyl-5,5-dimethylcyclohexyl)2-hydroxypropanoate] | 78500 nM | – | –
11 | CC(C)[C@H]1CCC(C)(C)C[C@@H]1OC(=O)[C@H](C)O [(1S,2R)-17a-2, (S)-((1S,2R)-2-isopropyl-5,5-dimethylcyclohexyl)2-hydroxypropanoate] | 24500 nM | – | –
12 | CC(C)[C@@H]1CC[C@@H](C)C[C@H]1C(=O)Nc1ccc(CC#N)cc1 [Evercool 180, reference compound] | – | – | cool feeling characteristic ([2]; 2 ppm aqueous solution): menthol-like characteristic

Continued by falling EC50 [1], values first:

Row | EC50 [1] | melting point | SMILES | further results
13 | 140 nM | – | CC(C)[C@@H]1CCC(C)(C)C[C@H]1C(=O)Nc1ccc(CC#N)cc1 [14a-38i, (−)-trans-N-(4-(cyanomethyl)phenyl)-2-isopropyl-5,5-dimethylcyclohexanecarboxamide] | –
14 | 130 nM | 104 to 107 °C | CC(C)C1CCC(C)(C)CC1C(=O)NCCc1ccccn1 (racemic) [rac-14a-16, 2-isopropyl-5,5-dimethyl-N-(2-(pyridin-2-yl)ethyl)cyclohexanecarboxamide] | –
15 | 79 nM | – | COc1ccc(NC(=O)C2CC(C)(C)CCC2C(C)C)c(C)c1 (racemic) [rac-14a-40, 2-isopropyl-N-(4-methoxy-2-methylphenyl)-5,5-dimethylcyclohexanecarboxamide] | taste and accompanying sensations (umami, salty, bitterness, numbness, fiery feeling) ([2]; 30 ppm aqueous solution): stronger and shaper than those of Comparative Compound 3; also recorded: Umami and a numbness feeling were exhibited simultaneously
16 | 55 nM | 115 to 118 °C | COc1ccc(NC(=O)C2CC(C)(C)CCC2C(C)C)cc1 (racemic) [rac-14a-34, 2-isopropyl-N-(4-methoxyphenyl)-5,5-dimethylcyclohexanecarboxamide] | course / persistence of cool feeling intensity ([2]; 30 ppm aqueous solution): increased over time; start of cool feeling ([2]; 30 ppm aqueous solution): later than Comparative Compound 3; taste and accompanying sensations (umami, salty, bitterness, numbness, fiery feeling) ([2]; 30 ppm aqueous solution): comparable to that of Comparative Compound 3; also recorded: the secretion of saliva continued
17 | 48 nM | 165 to 172 °C | CC(C)C1CCC(C)(C)CC1C(=O)Nc1ccc(CO)cc1 (racemic) [rac-14a-47, N-(4-(hydroxymethyl)phenyl)-2-isopropyl-5,5-dimethylcyclohexanecarboxamide] | course / persistence of cool feeling intensity ([2]; 30 ppm aqueous solution): also has persistence; start of cool feeling ([2]; 30 ppm aqueous solution): early start of a cool feeling; taste and accompanying sensations (umami, salty, bitterness, numbness, fiery feeling) ([2]; 30 ppm aqueous solution): stronger umami was felt than that in Comparative Compound 3; also recorded: accompanied by a fiery feeling (burning feeling)
18 | 27 nM | 93 to 98 °C | COc1ccc(NC(=O)C2CC(C)(C)CCC2C(C)C)cc1O (racemic) [rac-14a-41, N-(3-hydroxy-4-methoxyphenyl)-2-isopropyl-5,5-dimethylcyclohexanecarboxamide] | course / persistence of cool feeling intensity ([2]; 30 ppm aqueous solution): also has persistence; start of cool feeling ([2]; 30 ppm aqueous solution): slightly earlier than Comparative Compound 3; taste and accompanying sensations (umami, salty, bitterness, numbness, fiery feeling) ([2]; 30 ppm aqueous solution): Chemical-like bitterness was somewhat felt as a first taste; also recorded: accompanied by a clear feeling than a fiery feeling
